Source: ChEMBL document CHEMBL1121833, “Structure--sweetness relationship of L-aspartyl dipeptide analogues. A receptor site topology” (J Med Chem, 1981)
Peptide text beside a SMILES is read from it.

Experiment: Sweet potency as logarithm of sweet potency (log SP) relative to sucrose; Tasteless
Type: functional

Row | SMILES | Log SP
1 | N[C@H](CC(=O)O)C(=O)NCCc1ccccc1 | Tasteless
2 | CCC[C@H](C)NC(=O)[C@H](N)CC(=O)O | Tasteless
3 | CC(C)CCCNC(=O)[C@H](N)CC(=O)O | Tasteless

Experiment: Sweet potency as logarithm of sweet potency (log SP) relative to sucrose; No sweet
Type: functional

Row | SMILES | Log SP
4 | CC(=O)OC[C@H](CC(C)C)NC(=O)[C@H](N)CC(=O)O | Not sweet
5 | COC(=O)C(CNC(=O)[C@H](N)CC(=O)O)Cc1ccccc1 (some centres not stated) | Not sweet
6 | CC[C@@H](COC(=O)C1CCCCC1)NC(=O)[C@H](N)CC(=O)O | Not sweet
7 | COC(=O)[C@@H](CC(=O)OC1CCCCC1)NC(=O)[C@H](N)CC(=O)O | Not sweet
8 | C[C@@H](COC(=O)c1ccccc1)NC(=O)[C@H](N)CC(=O)O | Not sweet
9 | CCCCOC(=O)CCNC(=O)[C@H](N)CC(=O)O | Not sweet
10 | CCOC(=O)C[C@H](Cc1ccccc1)NC(=O)[C@H](N)CC(=O)O | Not sweet
11 | COC(=O)C(CNC(=O)[C@H](N)CC(=O)O)C(=O)OC | Not sweet
12 | CC[C@@H](CC(=O)OC1CCCCC1)NC(=O)[C@H](N)CC(=O)O | Not sweet
13 | CC[C@@H](CC(=O)OC(C)C)NC(=O)[C@H](N)CC(=O)O | Not sweet
14 | C[C@@H](COC(=O)C1CCCCC1)NC(=O)[C@H](N)CC(=O)O | Not sweet
15 | COC(=O)[C@@H](CC(C)C)NC(=O)[C@H](N)CC(=O)O | Not sweet
16 | C[C@@H](COC(=O)C1CCCC(C)(C)C1)NC(=O)[C@H](N)CC(=O)O (some centres not stated) | Not sweet
17 | CCCCC(=O)OC[C@H](CC)NC(=O)[C@H](N)CC(=O)O | Not sweet
18 | CCC[C@@H](COC(=O)CC)NC(=O)[C@H](N)CC(=O)O | Not sweet
19 | COC(=O)C(NC(=O)[C@@H](N)CC(=O)O)C(=O)OC1CC(C)CCC1C(C)C (some centres not stated) | Not sweet
20 | CC(C)C[C@H](NC(=O)[C@H](N)CC(=O)O)C(=O)OC(C)C | Not sweet
21 | COC(=O)C(CNC(=O)[C@H](N)CC(=O)O)C(=O)OC1CCCC1 (some centres not stated) | Not sweet
22 | CCC(C)[C@@H](COC(C)=O)NC(=O)[C@H](N)CC(=O)O (some centres not stated) | Not sweet
23 | CC1CCCCC1OC(=O)CCNC(=O)[C@H](N)CC(=O)O (some centres not stated) | Not sweet
24 | CC[C@H](C)[C@H](NC(=O)[C@@H](N)CC(=O)O)C(=O)OC (H-Asp-Ile-OMe) | Not sweet
25 | COC(=O)C(CNC(=O)[C@H](N)CC(=O)O)C(=O)OC1CCCCC1 (some centres not stated) | Not sweet
26 | COC(=O)[C@@H](COC(=O)c1ccccc1)NC(=O)[C@H](N)CC(=O)O | Not sweet
27 | CC(=O)OC[C@H](Cc1ccccc1)NC(=O)[C@H](N)CC(=O)O | Not sweet

Experiment: Sweet potency as logarithm of sweet potency (log SP) relative to sucrose; Bitter
Type: functional

Row | SMILES | Log SP
28 | C[C@@H](Cc1ccc2c(c1)OCO2)NC(=O)[C@H](N)CC(=O)O | Bitter
29 | C[C@@H](Cc1ccc(NS(C)(=O)=O)cc1)NC(=O)[C@H](N)CC(=O)O | Bitter
30 | CC(C)C[C@H](C)NC(=O)[C@H](N)CC(=O)O | Bitter
31 | C[C@@H](CC1CCCCC1)N(C)C(=O)[C@H](N)CC(=O)O | Bitter
32 | C[C@@H](Cc1cc2ccccc2[nH]1)NC(=O)[C@H](N)CC(=O)O | Bitter
33 | COC(=O)[C@@H](CCCCN)NC(=O)[C@H](N)CC(=O)O | Bitter
34 | C[C@H](Cc1ccccc1)N(C)C(=O)[C@H](N)CC(=O)O | Bitter
35 | CCC[C@H](CC)NC(=O)[C@H](N)CC(=O)O | Bitter
36 | CC(CNC(=O)[C@H](N)CC(=O)O)c1ccccc1 (some centres not stated) | Bitter
37 | C[C@@H](Cc1ccccc1)N(C)C(=O)[C@H](N)CC(=O)O | Bitter
38 | C[C@H](CC1CCCCC1)N(C)C(=O)[C@H](N)CC(=O)O | Bitter

Experiment: Sweet potency as logarithm of sweet potency (log SP) relative to sucrose; Sweet
Type: functional

Row | SMILES | Log SP
39 | N[C@H](CC(=O)O)C(=O)N[C@@H](CO)Cc1ccc(O)cc1 | Sweet
40 | N[C@H](CC(=O)O)C(=O)N[C@@H](CO)Cc1ccccc1 | Sweet
41 | C[C@H](NC(=O)[C@H](N)CC(=O)O)C(O)c1ccccc1 (some centres not stated) | Sweet
42 | CCCCCCNC(=O)[C@H](N)CC(=O)O | Sweet
43 | N[C@H](CC(=O)O)C(=O)NCCOc1ccccc1 | Sweet
44 | C[C@@H](Cc1ccc(O)cc1)NC(=O)[C@H](N)CC(=O)O | Sweet
45 | N[C@H](CC(=O)O)C(=O)NCCc1ccc(O)cc1 | Sweet
46 | CCCC[C@H](CC)NC(=O)[C@H](N)CC(=O)O | Sweet
47 | CCC(C)C[C@H](C)NC(=O)[C@H](N)CC(=O)O (some centres not stated) | Sweet
48 | N[C@H](CC(=O)O)C(=O)NCCc1ccco1 | Sweet
49 | CCCCCCCNC(=O)[C@H](N)CC(=O)O | Sweet
50 | CCOC(=O)[C@H](NC(=O)[C@H](N)CC(=O)O)C(=O)OC(C)(C)C | Sweet

Experiment: Sweet potency as logarithm of sweet potency (log SP) relative to sucrose
Type: functional

Row | SMILES | Log SP
51 | CC(C)CCC(C)NC(=O)[C@H](N)CC(=O)O (some centres not stated) | 1.54
52 | CCC(CC)OC(=O)[C@@H](NC(=O)[C@H](N)CC(=O)O)C(=O)OC (stereo in doubt; 199) | 3.06
53 | N[C@H](CC(=O)O)C(=O)N[C@@H](CO)COC(=O)C1CCCC1 | 0.92
54 | C[C@H](O)[C@@H](NC(=O)[C@@H](N)CC(=O)O)C(=O)OC1CCCCC1 | 1.31
55 | CCC[C@@H](NC(=O)[C@H](N)CC(=O)O)C(=O)OC | 0.46
56 | CC[C@H](NC(=O)[C@H](N)CC(=O)O)C(=O)OC(C)C | 2.15
57 | CCCCOC(=O)[C@H](C)NC(=O)[C@H](N)CC(=O)O | 0.9
58 | COC(=O)CCCNC(=O)[C@H](N)CC(=O)O | 0.13
59 | CCCC[C@H](C)NC(=O)[C@H](N)CC(=O)O | 1.6
60 | CC[C@@H](COC(=O)C(C)C)NC(=O)[C@H](N)CC(=O)O | 1.38
61 | CCCCCC[C@@H](NC(=O)[C@H](N)CC(=O)O)C(=O)OC | 2.07
62 | CC(CNC(=O)[C@H](N)CC(=O)O)C(=O)OC(C)(C)C (some centres not stated) | 0.51
63 | COC(=O)[C@H](NC(=O)[C@H](N)CC(=O)O)C(=O)OC(C)(C)C | 2.03
64 | N[C@H](CC(=O)O)C(=O)NCCOC(=O)C1CCC1 | 0.99
65 | COC(=O)C(NC(=O)[C@@H](N)CC(=O)O)C(=O)OC1CC(C)CC(C)(C)C1 (some centres not stated) | 2.76
66 | N[C@H](CC(=O)O)C(=O)NCCC(=O)OC1CCCC1 | 1.16
67 | CCOC(=O)C(NC(=O)[C@@H](N)CC(=O)O)C(=O)OC1CCCCC1C (some centres not stated) | 3.09
68 | N[C@H](CC(=O)O)C(=O)NCCOC(=O)C1CC1 | 1.03
69 | CC(C)COC(=O)[C@H](NC(=O)[C@@H](N)CC(=O)O)[C@H](C)O | 1.36
70 | CC(C)COC(=O)[C@H](NC(=O)[C@@H](N)CC(=O)O)[C@@H](C)O | 1.97
71 | CCC[C@@H](COC(C)=O)NC(=O)[C@H](N)CC(=O)O | 0.66
72 | CCOC(=O)C[C@H](C)NC(=O)[C@H](N)CC(=O)O (stereo in doubt; 128) | 1.16
73 | CCOC(=O)[C@H](CO)NC(=O)[C@H](N)CC(=O)O | 1.92
74 | COC(=O)[C@@H](CSC(C)(C)C)NC(=O)[C@H](N)CC(=O)O | 2.95
75 | CC(C)CC(=O)OC[C@H](CO)NC(=O)[C@H](N)CC(=O)O | 1.3
76 | CC(=O)OC[C@H](C)NC(=O)[C@H](N)CC(=O)O | 1.61

Row | SMILES | Log SP
77 | CCCCCOC(=O)[C@H](C)NC(=O)[C@H](N)CC(=O)O | 0.68
78 | CCSC[C@@H](NC(=O)[C@H](N)CC(=O)O)C(=O)OC | 1.6
79 | C[C@@H](CC(=O)OC(C)(C)C)NC(=O)[C@H](N)CC(=O)O | 0.68
80 | CCCCCCC(C)NC(=O)[C@H](N)CC(=O)O (some centres not stated) | 1.17
81 | CCCC(C)OC(=O)CCNC(=O)[C@H](N)CC(=O)O (some centres not stated) | 0.68
82 | COC(=O)[C@@H](CC(=O)OC(C)(C)C)NC(=O)[C@H](N)CC(=O)O | 1.3
83 | CC(=O)OC[C@@H](NC(=O)[C@H](N)CC(=O)O)C(C)C | 1.58
84 | C[C@@H](COC(=O)C(C)(C)C)NC(=O)[C@H](N)CC(=O)O | 2.28
85 | CC(C)COC(=O)[C@H](CO)NC(=O)[C@H](N)CC(=O)O | 2.21
86 | COC(=O)[C@@H](CSC(C)C)NC(=O)[C@H](N)CC(=O)O | 2.23
87 | CCOC(=O)[C@H](NC(=O)[C@@H](N)CC(=O)O)[C@H](C)O | 1.93
88 | C[C@@H](COC(=O)C1CC1)NC(=O)[C@H](N)CC(=O)O | 2.18
89 | CCC(C)C(=O)OC[C@H](C)NC(=O)[C@H](N)CC(=O)O (some centres not stated) | 2.08
90 | CCOC(=O)[C@H](NC(=O)[C@H](N)CC(=O)O)C(=O)OC(C)(C)C | 2.32
91 | COC(=O)C(NC(=O)[C@@H](N)CC(=O)O)C(=O)OC1CCCC(C)C1 (some centres not stated) | 3.02
92 | COC(=O)C(NC(=O)[C@@H](N)CC(=O)O)C(=O)OC1CCCCC1C (stereo in doubt; 202) | 3.92
93 | CCCSC[C@@H](NC(=O)[C@H](N)CC(=O)O)C(=O)OC | 2.11
94 | C[C@@H](CC(=O)OC1CCCCC1)NC(=O)[C@H](N)CC(=O)O | 0.64
95 | CCC(C)OC(=O)CCNC(=O)[C@H](N)CC(=O)O (some centres not stated) | 0.73
96 | CCCOC(=O)[C@H](NC(=O)[C@@H](N)CC(=O)O)[C@@H](C)O | 2.08
97 | C[C@@H](CC1CCCCC1)NC(=O)[C@H](N)CC(=O)O | 1.57
98 | CCC(=O)OC[C@H](COC)NC(=O)[C@H](N)CC(=O)O | 1.21
99 | COC(=O)C(NC(=O)[C@@H](N)CC(=O)O)C(=O)OCC1C2(C)CCC(C2)C1(C)C (some centres not stated) | 4.79
100 | CC(C)(Cc1ccccc1)NC(=O)[C@H](N)CC(=O)O | 1.19
101 | CC(=O)OC[C@H](CO)NC(=O)[C@H](N)CC(=O)O | 1.23
102 | CCCCC[C@H](C)NC(=O)[C@H](N)CC(=O)O (stereo in doubt; 12) | 1.56
